Reference: patent publication US10941158B2, “Pyrazole ACC inhibitors and uses thereof” (Gilead Apollo, LLC, priority 2015, dated 2021)
Converted amounts (≈) assume the structure as drawn. Like-named read-outs stand apart in the source and are kept apart here.

Experiments:
human (hACC2) ACC2 = human (hACC2) ACC2 (Homo sapiens, UniProt O00763); experiment: In vitro Acetyl-CoA Carboxylase (ACC) inhibition assay (ADP-Glo), hACC2; type: biochemical
Method: The detailed procedure is as follows. […] 10 μL ADP glo reagent was added. […] 20 μL kinase detection reagent was added.
“NA” stands for “not assayed.”

C. albicans ATCC 90028 = experiment: Anti-Fungal (Candida) Activity Assay, broth microtiter MIC; type: cell-based; conditions: read-out: MIC C. albicans ATCC 90028
Procedure, shortened: (§1)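 Visual 48 h MIC endpoints are reported. Plates followed CLSI M27-A3 in RPMI 1640 plus MOPS.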

C. krusei ATCC 6258 = experiment: as above; type: cell-based; conditions: Pichia kudriavzevii, read-out: MIC C. krusei ATCC 6258
Procedure, shortened: as §1

[1] = tested on: C. parapsilosis ATCC 22019; experiment: as above; type: cell-based; conditions: Lodderomyces parapsilosis, read-out: MIC C. parapsilosis ATCC 22019
Procedure, shortened: as §1

Botrtyis cinerea (Bc) = experiment: Growth inhibition assay of fungal pathogens; type: cell-based; conditions: 48 h, read-out: Concentration at 90% Inhibition Bc
Procedure, shortened: (§2)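 Compounds in DMSO tested at final 50, 10, 2 ppm or 2, 0.4, 0.08 ppm. Spores in 17% V8 medium, or 1.5 mm mycelial plugs in ¼ PDB for R. solani, incubated with compound. OD600 and visual ratings at 48 h versus 2% DMSO control gave percent growth inhibition.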

[2] = tested on: Collectotrichum graminicola (Cg); experiment: Growth inhibition assay of fungal pathogens; type: cell-based; conditions: 48 h, read-out: Concentration at 90% Inhibition Cg
Procedure, shortened: (§3)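 Percent growth inhibition was derived from 48 h OD600 and visual scores relative to 2% DMSO, with blank background subtraction. Fungi were grown from spores in 17% V8 liquid medium, R. solani from 1.5 mm plugs in ¼ PDB, with compound at final 50/10/2 or 2/0.4/0.08 ppm.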

Diplodia maydis (Dm) = experiment: Growth inhibition assay of fungal pathogens; type: cell-based; conditions: Stenocarpella maydis, 48 h, read-out: Concentration at 90% Inhibition Dm
Procedure, shortened: as §2

[3] = tested on: Fusarium moniliforme (Fm); experiment: Growth inhibition assay of fungal pathogens; type: cell-based; conditions: for IC90: Fusarium verticillioides, 48 h, read-out: Concentration at 90% Inhibition Fm
Procedure, shortened: as §2

[4] = tested on: Fusarium virguliforme (Fv); experiment: Growth inhibition assay of fungal pathogens; type: cell-based; conditions: 48 h
Procedure, shortened: as §3

[5] = tested on: Phytophthora capsici (Pc); experiment: Growth inhibition assay of fungal pathogens; type: cell-based; conditions: for IC90: Phytophthora capsici, read-out: Concentration at 90% Inhibition Pc
Procedure, shortened: as §3

Rhizoctonia solani (Rs) = experiment: Growth inhibition assay of fungal pathogens; type: cell-based; conditions: 48 h, read-out: Concentration at 90% Inhibition Rs
Procedure, shortened: as §2

Septoria tritici (St) = experiment: Growth inhibition assay of fungal pathogens; type: cell-based; conditions: for IC90: Zymoseptoria tritici, read-out: Concentration at 90% Inhibition St
Procedure, shortened: as §3

fungal (fACC2) ACC2 = fungal (fACC2) ACC2 (UniProt Q00955); conditions: read-out: fACC2 IC50; fungal ACC2, ADP-Glo
fungal (fACC2) ACC2, sequence (Q00955 whole entry): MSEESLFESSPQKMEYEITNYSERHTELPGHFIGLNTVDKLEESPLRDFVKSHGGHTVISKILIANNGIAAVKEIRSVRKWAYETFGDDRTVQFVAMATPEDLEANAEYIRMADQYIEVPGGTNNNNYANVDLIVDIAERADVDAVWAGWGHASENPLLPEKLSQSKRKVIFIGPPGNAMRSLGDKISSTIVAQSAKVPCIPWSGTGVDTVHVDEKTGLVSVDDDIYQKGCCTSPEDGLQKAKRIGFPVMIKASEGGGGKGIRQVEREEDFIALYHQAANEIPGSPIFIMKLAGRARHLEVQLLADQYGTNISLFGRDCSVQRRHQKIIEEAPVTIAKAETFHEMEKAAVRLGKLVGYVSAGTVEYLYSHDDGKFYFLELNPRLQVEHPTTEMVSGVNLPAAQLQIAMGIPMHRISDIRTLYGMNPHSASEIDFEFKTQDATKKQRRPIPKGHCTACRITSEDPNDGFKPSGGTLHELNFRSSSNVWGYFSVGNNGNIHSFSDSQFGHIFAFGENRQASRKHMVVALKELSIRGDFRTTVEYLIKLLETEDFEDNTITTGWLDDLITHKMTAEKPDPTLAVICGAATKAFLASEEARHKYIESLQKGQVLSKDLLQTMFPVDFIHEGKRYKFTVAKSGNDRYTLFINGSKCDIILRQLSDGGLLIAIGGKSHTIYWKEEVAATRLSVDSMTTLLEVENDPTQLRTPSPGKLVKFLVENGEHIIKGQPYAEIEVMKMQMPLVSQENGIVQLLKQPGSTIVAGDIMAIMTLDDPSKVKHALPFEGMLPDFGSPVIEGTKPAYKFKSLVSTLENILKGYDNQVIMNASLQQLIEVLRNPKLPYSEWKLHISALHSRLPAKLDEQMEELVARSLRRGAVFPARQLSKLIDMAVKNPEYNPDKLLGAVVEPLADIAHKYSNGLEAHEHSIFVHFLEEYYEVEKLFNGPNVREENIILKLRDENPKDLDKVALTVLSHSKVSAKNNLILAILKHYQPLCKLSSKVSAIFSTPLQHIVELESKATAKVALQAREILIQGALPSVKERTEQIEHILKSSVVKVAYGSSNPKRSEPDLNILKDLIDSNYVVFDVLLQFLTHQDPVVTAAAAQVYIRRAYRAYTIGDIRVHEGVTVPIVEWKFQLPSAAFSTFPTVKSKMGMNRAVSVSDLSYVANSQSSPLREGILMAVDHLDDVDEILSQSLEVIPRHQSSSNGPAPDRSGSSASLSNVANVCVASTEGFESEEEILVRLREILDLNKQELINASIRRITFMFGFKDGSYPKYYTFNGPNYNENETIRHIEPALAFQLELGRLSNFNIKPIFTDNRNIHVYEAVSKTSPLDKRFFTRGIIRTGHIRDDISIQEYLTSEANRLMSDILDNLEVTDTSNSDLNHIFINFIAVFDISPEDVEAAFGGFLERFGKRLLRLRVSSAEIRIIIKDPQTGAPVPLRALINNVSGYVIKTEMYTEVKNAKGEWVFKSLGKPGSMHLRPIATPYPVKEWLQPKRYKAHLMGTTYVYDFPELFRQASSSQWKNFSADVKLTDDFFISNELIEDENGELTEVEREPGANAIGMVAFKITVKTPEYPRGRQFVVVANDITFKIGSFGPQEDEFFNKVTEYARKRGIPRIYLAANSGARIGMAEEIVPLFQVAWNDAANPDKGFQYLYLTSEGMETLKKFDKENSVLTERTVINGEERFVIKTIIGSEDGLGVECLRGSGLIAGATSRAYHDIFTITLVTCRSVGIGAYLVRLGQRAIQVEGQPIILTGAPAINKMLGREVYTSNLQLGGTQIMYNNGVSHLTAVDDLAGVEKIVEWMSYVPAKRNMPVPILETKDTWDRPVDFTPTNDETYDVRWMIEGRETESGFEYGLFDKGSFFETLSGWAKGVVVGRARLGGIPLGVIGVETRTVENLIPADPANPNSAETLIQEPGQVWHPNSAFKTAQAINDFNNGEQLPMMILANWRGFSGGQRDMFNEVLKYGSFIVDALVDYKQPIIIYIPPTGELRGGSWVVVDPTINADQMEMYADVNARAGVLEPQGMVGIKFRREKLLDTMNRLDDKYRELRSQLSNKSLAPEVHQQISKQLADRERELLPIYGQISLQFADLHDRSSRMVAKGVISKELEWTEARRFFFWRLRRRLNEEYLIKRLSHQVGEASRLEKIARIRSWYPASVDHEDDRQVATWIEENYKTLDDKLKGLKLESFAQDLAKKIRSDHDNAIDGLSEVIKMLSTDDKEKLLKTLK

[6] = ATCC90028, 3 replicates, MIC recorded at 48 h
[7] = ATCC6258, 3 replicates, MIC recorded at 48 h
[8] = ATCC22019, 3 replicates, MIC recorded at 48 h
[9] = Table 4a, 48 hours, read-out: Concentration at 90% Inhibition Fv
[10] = Table 4b, 48 hours, read-out: Concentration at 90% Inhibition Fv

human (hACC2) ACC2, sequence (O00763 whole entry): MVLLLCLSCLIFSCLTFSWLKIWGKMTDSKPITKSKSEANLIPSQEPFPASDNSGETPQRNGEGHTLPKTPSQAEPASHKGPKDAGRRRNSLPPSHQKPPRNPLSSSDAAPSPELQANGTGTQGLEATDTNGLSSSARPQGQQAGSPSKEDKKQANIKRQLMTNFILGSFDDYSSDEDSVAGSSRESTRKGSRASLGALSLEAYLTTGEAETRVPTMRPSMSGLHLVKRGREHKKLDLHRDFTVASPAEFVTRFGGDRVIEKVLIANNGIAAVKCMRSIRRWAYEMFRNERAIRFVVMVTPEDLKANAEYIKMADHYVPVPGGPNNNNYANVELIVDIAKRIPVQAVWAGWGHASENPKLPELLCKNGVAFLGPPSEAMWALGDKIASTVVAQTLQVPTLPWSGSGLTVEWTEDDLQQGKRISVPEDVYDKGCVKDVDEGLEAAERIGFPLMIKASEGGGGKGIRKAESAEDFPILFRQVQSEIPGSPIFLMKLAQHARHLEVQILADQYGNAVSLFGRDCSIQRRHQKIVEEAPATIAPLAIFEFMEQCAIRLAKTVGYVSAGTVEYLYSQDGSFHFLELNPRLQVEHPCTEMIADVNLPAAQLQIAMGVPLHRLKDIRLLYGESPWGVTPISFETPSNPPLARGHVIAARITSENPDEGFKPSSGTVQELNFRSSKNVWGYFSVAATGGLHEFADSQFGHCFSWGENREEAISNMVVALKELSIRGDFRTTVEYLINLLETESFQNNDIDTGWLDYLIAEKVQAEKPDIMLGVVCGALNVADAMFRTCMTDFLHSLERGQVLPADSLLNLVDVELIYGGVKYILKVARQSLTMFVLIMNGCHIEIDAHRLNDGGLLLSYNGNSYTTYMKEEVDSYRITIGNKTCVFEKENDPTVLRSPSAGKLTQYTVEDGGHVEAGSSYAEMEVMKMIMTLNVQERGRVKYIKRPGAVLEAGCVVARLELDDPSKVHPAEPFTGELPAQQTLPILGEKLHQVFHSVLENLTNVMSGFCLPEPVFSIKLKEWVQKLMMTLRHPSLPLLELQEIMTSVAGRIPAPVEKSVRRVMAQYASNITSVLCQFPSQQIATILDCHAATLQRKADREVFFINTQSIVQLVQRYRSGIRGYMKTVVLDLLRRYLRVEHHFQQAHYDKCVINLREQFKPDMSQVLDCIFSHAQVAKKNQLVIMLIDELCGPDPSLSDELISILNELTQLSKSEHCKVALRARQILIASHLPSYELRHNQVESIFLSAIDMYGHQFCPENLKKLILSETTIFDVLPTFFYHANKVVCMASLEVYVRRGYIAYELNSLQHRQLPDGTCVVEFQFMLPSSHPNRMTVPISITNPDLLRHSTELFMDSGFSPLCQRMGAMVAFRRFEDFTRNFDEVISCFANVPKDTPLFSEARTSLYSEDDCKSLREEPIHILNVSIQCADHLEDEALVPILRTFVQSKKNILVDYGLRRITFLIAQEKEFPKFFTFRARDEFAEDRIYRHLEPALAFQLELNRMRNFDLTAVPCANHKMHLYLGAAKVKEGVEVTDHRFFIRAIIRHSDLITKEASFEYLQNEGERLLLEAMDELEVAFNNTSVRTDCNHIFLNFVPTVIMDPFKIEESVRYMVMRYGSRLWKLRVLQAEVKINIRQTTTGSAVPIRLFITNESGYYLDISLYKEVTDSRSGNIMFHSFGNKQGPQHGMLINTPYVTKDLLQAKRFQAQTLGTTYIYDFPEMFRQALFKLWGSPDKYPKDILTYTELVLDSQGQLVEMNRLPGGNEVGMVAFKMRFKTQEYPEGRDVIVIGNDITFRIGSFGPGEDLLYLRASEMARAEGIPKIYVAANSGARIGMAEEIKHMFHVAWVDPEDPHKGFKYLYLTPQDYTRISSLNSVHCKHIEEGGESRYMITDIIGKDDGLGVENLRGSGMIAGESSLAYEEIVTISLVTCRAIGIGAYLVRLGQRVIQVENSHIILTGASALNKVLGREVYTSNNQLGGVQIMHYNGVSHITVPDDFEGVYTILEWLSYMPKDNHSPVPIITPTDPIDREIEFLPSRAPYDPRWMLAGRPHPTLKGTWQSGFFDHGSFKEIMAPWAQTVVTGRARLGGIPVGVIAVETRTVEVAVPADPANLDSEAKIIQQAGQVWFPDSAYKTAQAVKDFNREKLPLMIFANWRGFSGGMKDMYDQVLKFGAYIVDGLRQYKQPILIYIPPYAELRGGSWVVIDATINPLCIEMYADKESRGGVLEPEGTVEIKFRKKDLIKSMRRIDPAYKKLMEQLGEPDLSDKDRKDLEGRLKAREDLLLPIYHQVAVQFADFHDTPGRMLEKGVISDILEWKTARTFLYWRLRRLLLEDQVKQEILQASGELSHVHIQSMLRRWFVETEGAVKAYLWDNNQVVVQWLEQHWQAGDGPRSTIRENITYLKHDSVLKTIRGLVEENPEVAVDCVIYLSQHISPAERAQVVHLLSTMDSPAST

Compound	IC50 (human (hACC2) ACC2) [nM]	MIC (C. albicans ATCC 90028; [6]) [µg/mL]	MIC (C. krusei ATCC 6258; [7]) [µg/mL]	MIC [1, 8] [µg/mL]	IC90 (Botrtyis cinerea (Bc); Table 4a) [µg/mL]	IC90 (Botrtyis cinerea (Bc); Table 4b) [µg/mL]	IC90 ([2]; Table 4a) [µg/mL]	IC90 ([2]; Table 4b) [µg/mL]	IC90 (Diplodia maydis (Dm); Table 4a) [µg/mL]	IC90 (Diplodia maydis (Dm); Table 4b) [µg/mL]	IC90 ([3]; Table 4a, 48 hours) [µg/mL]	IC90 ([3]; Table 4b, 48 hours) [µg/mL]	IC90 [4, 9] [µg/mL]	IC90 [4, 10] [µg/mL]	IC90 ([5]; Table 4a, 48 hours) [µg/mL]	Concentration at 90% Inhibition Pc ([5]; Table 4b, 48 hours)	IC90 (Rhizoctonia solani (Rs); Table 4a) [µg/mL]	IC90 (Rhizoctonia solani (Rs); Table 4b) [µg/mL]	Concentration at 90% Inhibition St (Septoria tritici (St); Table 4b, 48 hours)	IC50 (fungal (fACC2) ACC2) [nM]	further results
COc1ccc(F)cc1[C@H](Cn1c(=O)n([C@@H](C)C(=O)N2CCCC2)c(=O)c2c(C)c(-n3cccn3)sc21)OC(C)C [Compound I-31, 1-((R)-2-(5-fluoro-2-methoxyphenyl)-2-isopropoxyethyl)-5-methyl-3-((S)-1-oxo-1-(pyrrolidin-1-yl)propan-2-yl)-6-(1H-pyrazol-1-yl)thieno[2,3-d]pyrimidine-2,4(1H,3H)-dione]	3 to 10	1.1 to 2 (≈ 1.88 to 3.43 µM)	2.1 to 4 (≈ 3.6 to 6.85 µM)	2.1 to 4 (≈ 3.6 to 6.85 µM)	0.4 (≈ 0.685 µM)	0.4 (≈ 0.685 µM)	0.4 (≈ 0.685 µM)	0.4 (≈ 0.685 µM)	0.4 (≈ 0.685 µM)	0.4 (≈ 0.685 µM)	0.08 (≈ 0.137 µM)	0.08 (≈ 0.137 µM)	0.4 (≈ 0.685 µM)	0.4 (≈ 0.685 µM)	> 50	D (“D” provided a compound concentration of >50 ppm at 90% inhibition of fungal pathogens)	2 (≈ 3.43 µM)	2 (≈ 3.43 µM)	D (“D” provided a compound concentration of >50 ppm at 90% inhibition of fungal pathogens)	0.6 to 3	IC90 (Septoria tritici (St); Table 4a, 48 hours): > 50 µg/mL
COc1ccc(F)cc1[C@H](Cn1c(=O)n(C(C)C(=O)N2CCCC2)c(=O)c2c(C)c(-n3cccn3)sc21)OC(C)C (stereo partly drawn) [Compound I-32, 1-((R)-2-(5-fluoro-2-methoxyphenyl)-2-isopropoxyethyl)-5-methyl-3-(1-oxo-1-(pyrrolidin-1-yl)propan-2-yl)-6-(1H-pyrazol-1-yl)thieno[2,3-d]pyrimidine-2,4(1H,3H)-dione]	3 to 10	2.1 to 4 (≈ 3.6 to 6.85 µM)	2.1 to 4 (≈ 3.6 to 6.85 µM)	> 4.1	0.4 (≈ 0.685 µM)	0.4 (≈ 0.685 µM)	0.4 (≈ 0.685 µM)	0.4 (≈ 0.685 µM)	2 (≈ 3.43 µM)	2 (≈ 3.43 µM)	0.08 (≈ 0.137 µM)	0.08 (≈ 0.137 µM)	0.4 (≈ 0.685 µM)	0.4 (≈ 0.685 µM)	> 50	D (“D” provided a compound concentration of >50 ppm at 90% inhibition of fungal pathogens)	2 (≈ 3.43 µM)	2 (≈ 3.43 µM)	D (“D” provided a compound concentration of >50 ppm at 90% inhibition of fungal pathogens)	0.6 to 3	IC90 (Septoria tritici (St); Table 4a, 48 hours): > 50 µg/mL
CCO[C@@H](Cn1c(=O)n(C(C)(C)C(=O)NC(C)C)c(=O)c2c(C)c(-n3cccn3)sc21)c1cc(F)ccc1OC [Compound I-33, (R)-2-(1-(2-ethoxy-2-(5-fluoro-2-methoxyphenyl)ethyl)-5-methyl-2,4-dioxo-6-(1H-pyrazol-1-yl)-1,4-dihydrothieno[2,3-d]pyrimidin-3(2H)-yl)-N-isopropyl-2-methylpropanamide]	10 to 40	–	–	–	2 (≈ 3.5 µM)	2 (≈ 3.5 µM)	10 (≈ 17.5 µM)	2 (≈ 3.5 µM)	> 50	> 50	–	–	–	–	–	–	10 (≈ 17.5 µM)	2 (≈ 3.5 µM)	–	0.6 to 3	MIC (C. albicans ATCC 90028; ATCC90028, 48 h): > 4.1 µg/mL; MIC (C. krusei ATCC 6258; ATCC6258, 48 h): > 4.1 µg/mL; MIC ([1]; ATCC22019, 48 h): > 4.1 µg/mL; IC90 [3]: 0.4 µg/mL (≈ 0.7 µM); Concentration at 90% Inhibition Fm ([3]; Table 4b, 48 hours): A (“A” provided a compound concentration of 0.4 ppm at 90% inhibition of fungal pathogens); IC90 ([4]; read-out: Concentration at 90% Inhibition Fv, Table 4a, 48 hours): 0.4 µg/mL (≈ 0.7 µM); IC90 ([4]; read-out: Concentration at 90% Inhibition Fv, Table 4b, 48 hours): 0.4 µg/mL (≈ 0.7 µM); IC90 ([5]; 48 h, Table 4a): > 50 µg/mL; IC90 ([5]; 48 h, Table 4b): > 50 µg/mL; IC90 (Septoria tritici (St); 48 h, Table 4a): > 50 µg/mL; IC90 (Septoria tritici (St); 48 h, Table 4b): > 50 µg/mL
CCO[C@@H](Cn1c(=O)n(C(C)(C)C(=O)N2CCCC2)c(=O)c2c(C)c(-n3cccn3)sc21)c1cc(F)ccc1OC [Compound I-34, (R)-1-(2-ethoxy-2-(5-fluoro-2-methoxyphenyl)ethyl)-5-methyl-3-(2-methyl-1-oxo-1-(pyrrolidin-1-yl)propan-2-yl)-6-(1H-pyrazol-1-yl)thieno[2,3-d]pyrimidine-2,4(1H,3H)-dione]	10 to 40	> 4.1	> 4.1	> 4.1	0.4 (≈ 0.685 µM)	0.4 (≈ 0.685 µM)	2 (≈ 3.43 µM)	2 (≈ 3.43 µM)	10 (≈ 17.1 µM)	2 (≈ 3.43 µM)	0.08 (≈ 0.137 µM)	0.08 (≈ 0.137 µM)	0.4 (≈ 0.685 µM)	0.4 (≈ 0.685 µM)	> 50	D (“D” provided a compound concentration of >50 ppm at 90% inhibition of fungal pathogens)	2 (≈ 3.43 µM)	2 (≈ 3.43 µM)	D (“D” provided a compound concentration of >50 ppm at 90% inhibition of fungal pathogens)	0.6 to 3	IC90 (Septoria tritici (St); Table 4a, 48 hours): > 50 µg/mL
COc1ccc(F)cc1[C@H](Cn1c(=O)n(C(C)(C)C(=O)N2CCCC2)c(=O)c2c(C)c(-n3cccn3)sc21)OCCO [Compound I-36, (R)-1-(2-(5-fluoro-2-methoxyphenyl)-2-(2-hydroxy-ethoxy)ethyl)-5-methyl-3-(2-methyl-1-oxo-1-(pyrrolidin-1-yl)propan-2-yl)-6-(1H-pyrazol-1-yl)thieno[2,3-d]pyrimidine-2,4(1H,3H)-dione]	3 to 10	2.1 to 4 (≈ 3.5 to 6.67 µM)	1.1 to 2 (≈ 1.83 to 3.34 µM)	2.1 to 4 (≈ 3.5 to 6.67 µM)	> 50	10 (≈ 16.7 µM)	> 50	10 (≈ 16.7 µM)	> 50	> 50	2 (≈ 3.34 µM)	2 (≈ 3.34 µM)	2 (≈ 3.34 µM)	2 (≈ 3.34 µM)	> 50	D (“D” provided a compound concentration of >50 ppm at 90% inhibition of fungal pathogens)	> 50	10 (≈ 16.7 µM)	D (“D” provided a compound concentration of >50 ppm at 90% inhibition of fungal pathogens)	0.6 to 3	IC90 (Septoria tritici (St); Table 4a, 48 hours): > 50 µg/mL
COc1ccc(F)cc1[C@H](Cn1c(=O)n(C(C)(C)C(=O)N2CCCC2)c(=O)c2c(C)c(-n3cccn3)sc21)OC[C@@H](C)O [Compound I-37, 1-((R)-2-(5-fluoro-2-methoxyphenyl)-2-((R)-2-hydroxy-propoxy)ethyl)-5-methyl-3-(2-methyl-1-oxo-1-(pyrrolidin-1-yl)propan-2-yl)-6-(1H-pyrazol-1-yl)thieno[2,3-d]pyrimidine-2,4(1H,3H)-dione]	3 to 10	2.1 to 4 (≈ 3.42 to 6.52 µM)	1.1 to 2 (≈ 1.79 to 3.26 µM)	2.1 to 4 (≈ 3.42 to 6.52 µM)	2 (≈ 3.26 µM)	2 (≈ 3.26 µM)	> 50	10 (≈ 16.3 µM)	> 50	10 (≈ 16.3 µM)	0.4 (≈ 0.652 µM)	0.4 (≈ 0.652 µM)	2 (≈ 3.26 µM)	2 (≈ 3.26 µM)	> 50	D (“D” provided a compound concentration of >50 ppm at 90% inhibition of fungal pathogens)	10 (≈ 16.3 µM)	2 (≈ 3.26 µM)	D (“D” provided a compound concentration of >50 ppm at 90% inhibition of fungal pathogens)	0.6 to 3	IC90 (Septoria tritici (St); Table 4a, 48 hours): > 50 µg/mL
